Assay results: patent US20260176262A1, “KRAS INHIBITORS, PREPARATION METHOD THEREFOR, AND PHARMACEUTICAL USE THEREOF” (ABBISKO THERAPEUTICS CO., LTD., priority 2021, published 2026)
Where two headings read alike, the source gives them in different places.

Experiments:
AGS cell = assay: Anti-proliferative 2D CTG assay, AGS cells; assay type: cell-based; conditions: Homo sapiens, 72 h
Outline: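 Cells seeded at 1000/well overnight, then treated with 10-point 1:5 dilutions ([…], 0.1% DMSO) for 3 days at 37° C. Viability read by CellTiter-Glo luminescence; % inhibition versus HPE/ZPE controls, IC50 from four-parameter fit.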

KRAS^G12D/cRAF = KRAS^G12D/cRAF (Homo sapiens, UniProt P01116, G12D); assay: KRAS G12D/cRAF binding test (Alphalisa); conditions: His-tagged KRAS G12D + GMPPNP, GST-tagged cRAF
Sequence of KRAS^G12D/cRAF (P01116 1-188 isoform P01116-2 G12D): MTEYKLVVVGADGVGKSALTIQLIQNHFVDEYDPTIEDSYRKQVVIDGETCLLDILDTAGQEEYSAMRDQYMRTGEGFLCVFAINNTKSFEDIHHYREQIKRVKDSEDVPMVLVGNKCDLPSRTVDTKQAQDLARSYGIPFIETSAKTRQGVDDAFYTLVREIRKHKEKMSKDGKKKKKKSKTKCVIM
Outline: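 His-tagged KRAS G12D loaded with GMPPNP was incubated with compound (8-point 3-fold series from 5 mM DMSO stock) and then GST-cRAF for 15 min at room temperature. AlphaLISA detection followed after 60 min. IC50 came from a four-parameter fit of signal ratios against the DMSO control.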

[1] = Pharmacokinetic experiment in mice; conditions: male, ICR, mouse, plasma
Description: ICR mice male N=3 original source: Shanghai Sippr-Bk Lab Animal Co., Ltd.
Single oral (PO) administration in ICR mice: The compounds were weighed and added to the solvent of 0.5% CMC+1% Tween 80 respectively, well shaken, and ultrasonicated to get a light yellow suspension. 3 mice were administered orally after fasting overnight. The dose was 10 mg/kg.
About 90 μL/timepoint blood was collected through the orbital cavity, anticoagulated with sodium heparin, placed on ice after collection, and centrifuged to separate the plasma within 1 hour (centrifugation conditions: 8000 rpm, 6 m 2-8C). The blood collection timepoints were 0, 0.25, 0.5, 1, 2, 4, 6, 8 and 24 h. The samples were stored in a −20° C. refrigerator.
The plasma sample was 40 μL, 160 μL of ice-cold acetonitrile containing internal standard was added, vortexed for 1 minute, and centrifuged at 18,000 rpm for 10 minutes. The supernatant was transferred to a 96-well plate, and 5 μL was injected into LC-MS/MS for analysis.

[2] = AGS cells, incubated 3 days, CTG, class symbols, read-out: AGS cell IC50

In the case of [2H]C([2H])([2H])C12CCC(CN(c3nc(OC[C@@]45CCCN4C[C@H](F)C5)nc4c(F)c(-c5cc(O)cc6ccc(F)c(C#C)c56)nc(OC)c34)C1)N2 (stereo partly drawn) [Example 38, 5-ethynyl-6-fluoro-4-(8-fluoro-2-(((2R,7aS)-2-fluorotetrahydro-1H-pyrrolizin-7a(5H)-yl)methoxy)-5-methoxy-4-(1-(methyl-d3)-3,8-diazabicyclo [3.2.1]octan-3-yl)pyrido [4,3-d]pyrimidin-7-yl)naphthalen-2-ol], the IC50 (AGS cell; [2]) is reported as 50 to 500 nM, the IC50 (KRAS^G12D/cRAF; class symbols) is reported as under 50 nM and the AUC(0-t) ([1]; po, 10 mg/kg) is reported as 115 ng·h/mL. It also gave a half-life ([1]; po, 10 mg/kg) of 9.2 h.

C#Cc1c(F)ccc2cc(O)cc(-c3ncc4c(N5C[C@@H]6CC[C@](CC)(C5)N6)nc(OC[C@@]56CCCN5C[C@H](F)C6)nc4c3F)c12 [Example 54, 4-(4-((1R,5S)-1-ethyl-3,8-diazabicyclo[3.2.1]octan-3-yl)-8-fluoro-2-(((2R,7aS)-2-fluorotetrahydro-1H-pyrrolizin-7a(5H)-yl)methoxy)pyrido[4,3-d]pyrimidin-7-yl)-5-eth ynyl-6-fluoronaphthalen-2-ol] showed an IC50 (AGS cell; AGS cells, incubated 3 days, CTG, numeric values, read-out: AGS cell IC50) of 7.3 nM, an IC50 (KRAS^G12D/cRAF; numeric values) of 55 nM and an AUC(0-t) ([1]; iv, 2 mg/kg) of 460 ng·h/mL. It also gave a half-life ([1]; iv, 2 mg/kg) of 7.7 h, an AUC(0-t) ([1]; po, 10 mg/kg) of 1160 ng·h/mL and a bioavailability ([1]; po, 10 mg/kg) of 51%. The half-life ([1]; po, 10 mg/kg) was 9.8 h.

[2H]C([2H])([2H])OCC12CCC(CN(c3nc(OC[C@@]45CCCN4C[C@H](F)C5)nc4c(F)c(-c5cc(O)cc6ccc(F)c(C#C)c56)ncc34)C1)N2 (stereo partly drawn) [Example 2, 5-ethynyl-6-fluoro-4-(8-fluoro-2-(((2R,7aS)-2-fluorotetrahydro-1H-pyrrolizin-7a(5H)-yl)methoxy)-4-(1-((methoxy-d3)methyl)-3,8-diazabicyclo [3.2.1]octan-3-yl)pyrido[4,3-d]pyrimidin-7-yl)naphthalen-2-ol] gave an IC50 (AGS cell; [2]) of under 50 nM, an IC50 (KRAS^G12D/cRAF; class symbols) of 50 to 500 nM and an AUC(0-t) ([1]; po, 10 mg/kg) of 602 ng·h/mL. For the same compound, the half-life ([1]; po, 10 mg/kg) was 8.3 h.

In the case of C#Cc1c(F)ccc2cc(O)cc(-c3ncc4c(N5C[C@H]6CC[C@@](CCF)(C5)N6)nc(OC[C@@]56CCCN5C[C@H](F)C6)nc4c3F)c12 [Example 55, 5-ethynyl-6-fluoro-4-(8-fluoro-4-((1R,5R)-1-(2-fluoroethyl)-3,8-diazabicyclo[3.2.1]octan-3-yl)-2-(((2R,7aS)-2-fluorotetrahydro-1H-pyrrolizin-7a(5H)-yl)methoxy)pyrido[4,3-d]pyrimidin-7-yl)naphthalen-2-ol], the IC50 (AGS cell; [2]) is reported as 50 to 500 nM, the AUC(0-t) ([1]; po, 10 mg/kg) is reported as 296 ng·h/mL and the half-life ([1]; po, 10 mg/kg) is reported as 7.4 h.

Work on C#Cc1c(F)ccc2cc(O)cc(-c3ncc4c(N5CC6CCC(COCC)(C5)N6)nc(OC[C@@]56CCCN5C[C@H](F)C6)nc4c3F)c12 (stereo partly drawn) [Example 32, 4-(4-(1-(ethoxymethyl)-3,8-diazabicyclo[3.2.1]octan-3-yl)-8-fluoro-2-(((2R,7aS)-2-fluorotetrahydro-1H-pyrrolizin-7a(511)-yl)methoxy)pyrido[4,3-d]pyrimidin-7-yl)-5-ethynyl-6-fluoronaphthalen-2-ol] yielded an IC50 (AGS cell; AGS, read-out: AGS cell IC50 (nM)) of under 50 nM, an IC50 (KRAS^G12D/cRAF; class symbols) of 50 to 500 nM and an AUC(0-t) ([1]; po, 10 mg/kg) of 2200 ng·h/mL. For the same compound, the half-life ([1]; po, 10 mg/kg) was 4.6 h.

For [2H]C([2H])([2H])OC[C@]12CC[C@H](CN(c3nc(OC[C@@]45CCCN4C[C@H](F)C5)nc4c(F)c(-c5cc(O)cc6ccc(F)c(C#C)c56)nc(OCC)c34)C1)N2 [Example 51, 4-(5-ethoxy-8-fluoro-2-(((2R,7aS)-2-fluorotetrahydro-1H-pyrrolizin-7a(5H)-yl)methoxy)-4-((1S,5R)-1-((methoxy-d3)methyl)-3,8-diazabicyclo[3.2.1]octan-3-yl)pyrido[4,3-d]pyrimidin-7-yl)-5-ethynyl-6-fluoronaphthalen-2-ol], the AUC(0-t) ([1]; iv, 2 mg/kg) was 1570 ng·h/mL, the half-life ([1]; iv, 2 mg/kg) was 5.4 h and the AUC(0-t) ([1]; po, 10 mg/kg) was 1120 ng·h/mL. The bioavailability ([1]; po, 10 mg/kg) was 28% and the half-life ([1]; po, 10 mg/kg) was 6.2 h.
